Experimental data taken from PMC2813745, “A novel inhibitor of the PI3K/Akt pathway based on the structure of inositol 1,3,4,5,6-pentakisphosphate” (British Journal of Cancer, 2010).

What was measured:
[1] = system: almost 60 protein kinases; assay: SelectScreen kinase profiling: all the other tested kinases of the panel; type: biochemical; settings: 1 μM; all tested kinases other than PDK1 and mTOR
Description: Effect of the indicated compounds on the activity of various kinases was assessed by SelectScreen Kinase Profiling Service (Invitrogen-Life Technologies, Paisley, UK). Assays were performed using 1 μM of the tested compounds and ATP concentration as indicated in the corresponding tables. In the case of InsP5 a screen using 10 μM of the compound was also carried out, as indicated in the corresponding table.
None of the other polyphosphates had any significant effect (Table 1C). […] This is consistent with the detected inhibition of Thr308 phosphorylation in 2-O-Bn-InsP5-treated SKOV-3 and PC3 cells (Figure 1B and C) and 2-O-Bn-InsP5-treated mice (Figure 4D).

SKOV-3 = assay: Cell survival by cell counting, SKOV-3; type: cell-based, human; settings: SKOV-3, 72 h
Description: Cells seeded in a 24-well plate were treated with the indicated compounds in serum free DMEM or DMEM containing 0.5% FBS (PC3). After 72 h, the number of surviving cells was assessed by manual cell counting or by using the cell counter CDA-500 (Sysmex, Milton Keynes, UK). Alternatively, after 48 h, the number of apoptotic cells was assessed by acridine orange/ethidium bromide assay as described ([Piccolo et al, 2004]; [Maffucci et al, 2005]). SRB test was carried out in SKOV-3 and PC3 seeded in 96-well plate (3800 cells per well or 5800 cells per well, respectively) after 72 h of treatment as described ([Cappella et al, 2001]).
The number of surviving cells was assessed by cell counting. Data are mean±s.e. of n=4 (A) and n=2 (B) independent experiments. ^**=P<0.05. […] The number of apoptotic cells was assessed by acridine orange/ethidium bromide assay. Data are mean±s.e. of three independent experiments. ^**=P<0.05.

## O=P(O)(O)OC1C(OCc2ccccc2)C(OP(=O)(O)O)C(OP(=O)(O)O)C(OP(=O)(O)O)C1OP(=O)(O)O (centres unmarked) [2-O-Bn-InsP5, 2-O-benzyl-myo-inositol 1,3,4,5,6-pentakisphosphate]
[1]
  percentage of inhibition of all the other tested kinases: < 40%
SKOV-3
  number of surviving cells: strongly reduced the number of surviving
